Values of other authors, collected in patent US20140106026A1, “ARTICLE AND METHOD FOR TREATING, PREVENTING AND AMELIORATING ALCOHOL-INDUCED WERNICKE-KORSAKOFF SYNDROME” (priority 2012, published 2014).
Read-outs that look alike come from different tables or passages of the source.

Assays:
[1] = not given; remark: listed apart in the source
[2] = oral intake
[3] = not given; remark: listed apart in the source

solubility (in acetone, ether, chloroform, and benzene): practically insoluble | solubility (in water, methanol, and glycerol): soluble | stability ([1]; at acidic pH): stable | stability ([1]; in alkaline solutions): unstable | stability towards sulfite ([1]; sulfite as contained in wine and cordials): degrades | intake above which decline in thiamine absorption occurs [2]: above 5 mg | half-life, in vivo [3]: approximately two
Structure (SMILES): Cc1ncc(C[n+]2csc(CCO)c2C)c(N)n1 [Thiamine]
